In ChEMBL document CHEMBL5143555, “Potentiating the intracellular killing of Staphylococcus aureus by dihydroquinazoline analogues as NorA efflux pump inhibitor” (Bioorg Med Chem, 2022):
Converted amounts (≈) assume the structure as drawn. The source made the active and inactive calls. The rule behind the calls is not given here.

Experiments:
[1] = system: Staphylococcus aureus; assay: Antibacterial activity against Staphylococcus aureus 1199 measured after 24 hrs by Muller Hinton broth based MTT assay; format: functional
[2] = system: Staphylococcus aureus; assay: Antibacterial activity against Staphylococcus aureus K1758 measured after 24 hrs by Muller Hinton broth based MTT assay; format: functional
[3] = system: Staphylococcus aureus; assay: Antibacterial activity against Staphylococcus aureus 1199B measured after 24 hrs by Muller Hinton broth based MTT assay; format: functional
[4] = molecular target: T1, Quinolone resistance protein NorA (Staphylococcus aureus) (UniProt P0A0J7); assay: Inhibition of NorA in Staphylococcus aureus 1199B assessed as potentiation of ethidium bromide-induced antibacterial activity by measuring fractional inhibitory concentration
T1 sequence (whole entry): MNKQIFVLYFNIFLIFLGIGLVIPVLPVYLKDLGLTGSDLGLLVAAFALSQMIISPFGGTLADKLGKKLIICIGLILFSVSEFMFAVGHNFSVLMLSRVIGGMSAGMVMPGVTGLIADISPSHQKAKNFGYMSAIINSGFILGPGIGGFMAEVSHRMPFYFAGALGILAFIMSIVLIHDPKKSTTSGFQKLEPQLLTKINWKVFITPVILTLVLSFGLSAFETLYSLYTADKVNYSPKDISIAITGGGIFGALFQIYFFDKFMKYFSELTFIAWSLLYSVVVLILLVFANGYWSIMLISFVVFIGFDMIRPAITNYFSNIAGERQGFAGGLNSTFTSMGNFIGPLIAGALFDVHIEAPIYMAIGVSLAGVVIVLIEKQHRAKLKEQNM

[5] = Cytotoxicity against kidney epithelial cells (unknown origin) assessed as cell viability at 50 ug/mL measured after 24 hrs by alamar blue assay relative to control; format: toxicity, cell-based, Fetal kidney cell; settings: at 50 µg/mL, read-out: Activity
[6] = molecular target: T1, Quinolone resistance protein NorA (Staphylococcus aureus); assay: Inhibition of NorA in Staphylococcus aureus 1199B assessed as potentiation of 3.1 ug/mL norfloxacin-induced bactericidal activity by measuring log reduction in bacterial count at 3.9 ug/mL measured after 24 hrs by time-kill kinetics assay; settings: dose 3.9 µg/ml
[7] = molecular target: T1, Quinolone resistance protein NorA (Staphylococcus aureus); assay: Inhibition of NorA in Staphylococcus aureus 1199B assessed as accumulation of ethidium bromide at 3.9 ug/ml by measuring fluorescence intensity measured at 5 mins interval for 40 mins by fluorescence spectrophotometry; settings: dose 3.9 µg/ml
[8] = molecular target: T1, Quinolone resistance protein NorA (Staphylococcus aureus); assay: Inhibition of NorA in Staphylococcus aureus 1199B assessed as potentiation of norfloxacin-induced antibacterial activity by measuring fractional inhibitory concentration
[9] = molecular target: T1, Quinolone resistance protein NorA (Staphylococcus aureus); assay: Inhibition of NorA in Staphylococcus aureus 1199B assessed as potentiation of ethidium bromide-induced bactericidal activity at 62.5 ug/ml measured after 24 hrs by time-kill kinetics assay; settings: dose 62.5 µg/ml
[10] = molecular target: T1, Quinolone resistance protein NorA (Staphylococcus aureus); assay: Inhibition of NorA in Staphylococcus aureus 1199B assessed as potentiation of norfloxacin-induced antibacterial activity by measuring Norfloxacin MIC at sub MIC
[11] = molecular target: T1, Quinolone resistance protein NorA (Staphylococcus aureus); assay: Inhibition of NorA in Staphylococcus aureus 1199B assessed as potentiation of ethidium bromide-induced antibacterial activity by measuring ethidium bromide MIC at sub MIC
[12] = molecular target: T1, Quinolone resistance protein NorA (Staphylococcus aureus); assay: Inhibition of NorA in Staphylococcus aureus 1199B assessed as potentiation of norfloxacin-induced antibacterial activity by measuring Norfloxacin MIC at sub MIC relative to norfloxacin MIC alone
[13] = molecular target: T1, Quinolone resistance protein NorA (Staphylococcus aureus); assay: Inhibition of NorA in Staphylococcus aureus 1199B assessed as accumulation of norfloxacin at 3.9 ug/ml by measuring fluorescence intensity measured at 5 mins interval for 40 mins by fluorescence spectrophotometry; settings: dose 3.9 µg/ml
[14] = molecular target: T1, Quinolone resistance protein NorA (Staphylococcus aureus); assay: Inhibition of NorA in Staphylococcus aureus 1199B assessed as potentiation of ethidium bromide-induced antibacterial activity by measuring ethidium bromide MIC at sub MIC relative to ethidium bromide MIC alone
[15] = molecular target: T1, Quinolone resistance protein NorA (Staphylococcus aureus); assay: Inhibition of NorA in Staphylococcus aureus 1199B assessed as potentiation of 3.1 ug/mL norfloxacin-induced bactericidal activity by measuring log reduction in bacterial count at 7.8 ug/mL measured after 24 hrs by time-kill kinetics assay; settings: dose 7.8 µg/ml
[16] = molecular target: T1, Quinolone resistance protein NorA (Staphylococcus aureus); assay: Inhibition of NorA in Staphylococcus aureus 1199B assessed as potentiation of 3.1 ug/mL norfloxacin-induced bactericidal activity by measuring log reduction in bacterial count at 7.8 ug/mL measured after 12 hrs by time-kill kinetics assay; settings: dose 7.8 µg/ml
[17] = molecular target: T1, Quinolone resistance protein NorA (Staphylococcus aureus); assay: Inhibition of NorA in Staphylococcus aureus 1199B assessed as potentiation of ethidium bromide-induced bactericidal activity at 7.8 ug/ml measured within 8 hrs by time-kill kinetics assay; settings: dose 7.8 µg/ml

Compound | MIC [1] | MIC [2] | MIC [3] | further results
CN1c2ccc(Cl)cc2C(c2ccccc2)=NC1c1ccco1 (stereo not drawn) | 125 µg/mL (≈ 387 µM) | 250 µg/mL (≈ 774 µM) | > 1000 µg/mL | 
CC[C@H]1OC(=O)[C@H](C)[C@@H](O[C@H]2C[C@@](C)(OC)[C@@H](O)[C@H](C)O2)[C@H](C)[C@@H](O[C@@H]2O[C@H](C)C[C@H](N(C)C)[C@H]2O)[C@](C)(O)C[C@@H](C)C(=O)[C@H](C)[C@@H](O)[C@]1(C)O [ERYTHROMYCIN] | 0.1 µg/mL (≈ 0.136 µM) | 0.1 µg/mL (≈ 0.136 µM) | 0.42 µg/mL (≈ 0.572 µM) | 
CC1(C)S[C@@H]2[C@H](NC(=O)[C@H](N)c3ccc(O)cc3)C(=O)N2[C@H]1C(=O)O [AMOXICILLIN] | 0.05 µg/mL (≈ 0.137 µM) | 0.1 µg/mL (≈ 0.274 µM) | 0.42 µg/mL (≈ 1.15 µM) | 
O=[N+]([O-])c1ccc2c(c1)C(c1ccccc1)=NC(c1ccccc1)N2 (stereo not drawn) | 125 µg/mL (≈ 380 µM) | 250 µg/mL (≈ 759 µM) | 500 µg/mL (≈ 1520 µM) | 
Cc1onc(-c2ccccc2)c1C(=O)N[C@@H]1C(=O)N2[C@@H]1SC(C)(C)[C@@H]2C(=O)O [OXACILLIN] | 0.1 µg/mL (≈ 0.249 µM) | 0.1 µg/mL (≈ 0.249 µM) | 0.42 µg/mL (≈ 1.05 µM) | 
Fc1ccccc1C1=NC(c2ccc(Br)cc2)Nc2ccc(Cl)cc21 (stereo not drawn) | 125 µg/mL (≈ 301 µM) | 250 µg/mL (≈ 601 µM) | > 1000 µg/mL | 
O=C(O)c1cn(C2CC2)c2cc(N3CCNCC3)c(F)cc2c1=O [CIPROFLOXACIN] | 0.05 µg/mL (≈ 0.151 µM) | 0.05 µg/mL (≈ 0.151 µM) | 0.21 µg/mL (≈ 0.634 µM) | 
c1ccc(C2=NC(c3ccccc3)Nc3ccccc32)cc1 (stereo not drawn) | 125 µg/mL (≈ 440 µM) | 250 µg/mL (≈ 879 µM) | 250 µg/mL (≈ 879 µM) | fractional inhibitory concentration index (FICI) [4]: 0.31; viability at 24 h, 50 ug/mL [5]: 71%; Activity [6]: > 3 log10CFU/ml; Flu intensity [7]: 96.1; fractional inhibitory concentration index (FICI) [8]: 0.078; inhibition [9]: Active; MIC [10]: 3.1 µg/mL; MIC [11]: 3.1 µg/mL; fold change (FC) [12]: 16; Flu intensity [13]: 3960; fold change (FC) [14]: 16
COc1ccc(C2N=C(c3ccccc3)c3ccccc3N2)cc1 (stereo not drawn) | 125 µg/mL (≈ 398 µM) | 250 µg/mL (≈ 795 µM) | 500 µg/mL (≈ 1590 µM) | 
CN(C)[C@@H]1C(O)=C(C(N)=O)C(=O)[C@@]2(O)C(O)=C3C(=O)c4c(O)cccc4[C@@](C)(O)[C@H]3C[C@@H]12 [TETRACYCLINE] | 0.02 µg/mL (≈ 0.045 µM) | 0.1 µg/mL (≈ 0.225 µM) | 0.42 µg/mL (≈ 0.945 µM) | 
CN1c2ccc(Cl)cc2C(c2ccccc2)=NC1c1ccc([N+](=O)[O-])cc1 (stereo not drawn) | 125 µg/mL (≈ 331 µM) | 250 µg/mL (≈ 662 µM) | 250 µg/mL (≈ 662 µM) | fractional inhibitory concentration index (FICI) [4]: 0.25; viability at 24 h, 50 ug/mL [5]: 83.1%; Flu intensity [7]: 100; fractional inhibitory concentration index (FICI) [8]: 0.141; MIC [10]: 6.2 µg/mL; MIC [11]: 6.2 µg/mL; fold change (FC) [12]: 8; Flu intensity [13]: 573; fold change (FC) [14]: 8; Activity [15]: > 3 log10CFU/ml
GENTAMICIN | 0.21 µg/mL | 0.1 µg/mL | 1.7 µg/mL | 
CO[C@H]1/C=C/O[C@@]2(C)Oc3c(C)c(O)c4c(O)c(c(/C=N/N5CCN(C)CC5)c(O)c4c3C2=O)NC(=O)/C(C)=C\C=C\[C@H](C)[C@H](O)[C@@H](C)[C@@H](O)[C@@H](C)[C@H](OC(C)=O)[C@@H]1C [RIFAMPIN] | 0.1 µg/mL (≈ 0.122 µM) | 0.1 µg/mL (≈ 0.122 µM) | 0.21 µg/mL (≈ 0.255 µM) | 
O=[N+]([O-])c1ccc(C2N=C(c3ccccc3)c3ccccc3N2)cc1 (stereo not drawn) | 125 µg/mL (≈ 380 µM) | 250 µg/mL (≈ 759 µM) | > 1000 µg/mL | 
CN1c2ccc(Cl)cc2C(c2ccccc2)=NC1c1ccccc1 (stereo not drawn) | 125 µg/mL (≈ 376 µM) | 250 µg/mL (≈ 751 µM) | 500 µg/mL (≈ 1500 µM) | fractional inhibitory concentration index (FICI) [4]: 0.266; Activity [16]: > 3 log10CFU/ml; viability at 24 h, 50 ug/mL [5]: 5%; inhibition [17]: Active; Flu intensity [7]: 143; fractional inhibitory concentration index (FICI) [8]: 0.141; MIC [10]: 6.2 µg/mL; MIC [11]: 12.5 µg/mL; fold change (FC) [12]: 8; Flu intensity [13]: 1560; fold change (FC) [14]: 4
Fc1ccccc1C1=NC(c2ccccc2)Nc2ccc(Cl)cc21 (stereo not drawn) | 62.5 µg/mL (≈ 186 µM) | 250 µg/mL (≈ 742 µM) | 500 µg/mL (≈ 1480 µM) | 
CC(=O)NC[C@H]1CN(c2ccc(N3CCOCC3)c(F)c2)C(=O)O1 [LINEZOLID] | 0.85 µg/mL (≈ 2.52 µM) | 0.1 µg/mL (≈ 0.296 µM) | 1.75 µg/mL (≈ 5.19 µM) | 
CC1(C)S[C@@H]2[C@H](NC(=O)[C@H](N)c3ccccc3)C(=O)N2[C@H]1C(=O)O [AMPICILLIN] | 0.05 µg/mL (≈ 0.143 µM) | 0.1 µg/mL (≈ 0.286 µM) | 0.42 µg/mL (≈ 1.2 µM) | 
Brc1ccc(C2N=C(c3ccccc3)c3ccccc3N2)cc1 (stereo not drawn) | 125 µg/mL (≈ 344 µM) | 250 µg/mL (≈ 688 µM) | > 1000 µg/mL | 
CN[C@@H]1[C@H](O[C@H]2[C@H](O[C@H]3[C@H](O)[C@@H](O)[C@H](N=C(N)N)[C@@H](O)[C@@H]3N=C(N)N)O[C@@H](C)[C@]2(O)C=O)O[C@@H](CO)[C@H](O)[C@H]1O [STREPTOMYCIN] | 1.7 µg/mL (≈ 2.92 µM) | 0.4 µg/mL (≈ 0.688 µM) | 3.5 µg/mL (≈ 6.02 µM) | 
c1ccc(C2=NC(c3ccco3)Nc3ccccc32)cc1 (stereo not drawn) | 125 µg/mL (≈ 456 µM) | 250 µg/mL (≈ 911 µM) | 500 µg/mL (≈ 1820 µM) | 
C=CCOc1ccc(C2N=C(c3ccccc3)c3ccccc3N2)cc1 (stereo not drawn) | 125 µg/mL (≈ 367 µM) | 250 µg/mL (≈ 734 µM) | 500 µg/mL (≈ 1470 µM) | 
